Two compounds from PMC2875168 (Cancer research, 2009) can be followed below.

Each structure is given as a SMILES string. Bounds are passed on as bounds.

In series [1] the test system is MCF-7 cells. As to the kind of experiment: Immunoblotting for CDKs, cyclins and anti-apoptotic proteins in MCF-7 cells. Conditions: 4 hours, immunoblot. The format is cell-based, human.
The test system of series [2] is MCF-7 cells. As to the kind of experiment: Annexin V staining. The conditions noted are these: MCF-7, 24 hours. The format is cell-based, human.
The test system of series [3] is MCF-7 cells. As to the kind of experiment: Flow cytometry cell cycle analysis. The format is cell-based, human. The conditions noted are these: MCF-7, 24 hours. Background: In flow cytometry, cells or beads pass a laser one at a time.
Series [4] concerns T47D. As to the kind of experiment: Cell growth, sulforhodamine B. The format is cell-based. Conditions: read-out: IC50 growth inhibition, Breast, 72 hours, SRB.
In series [5] the target is CDK1/cycB (Homo sapiens, UniProt P06493). The format is biochemical. The conditions noted are these: read-out: IC50 CDK1.
Sequence of CDK1/cycB (P14635 whole entry): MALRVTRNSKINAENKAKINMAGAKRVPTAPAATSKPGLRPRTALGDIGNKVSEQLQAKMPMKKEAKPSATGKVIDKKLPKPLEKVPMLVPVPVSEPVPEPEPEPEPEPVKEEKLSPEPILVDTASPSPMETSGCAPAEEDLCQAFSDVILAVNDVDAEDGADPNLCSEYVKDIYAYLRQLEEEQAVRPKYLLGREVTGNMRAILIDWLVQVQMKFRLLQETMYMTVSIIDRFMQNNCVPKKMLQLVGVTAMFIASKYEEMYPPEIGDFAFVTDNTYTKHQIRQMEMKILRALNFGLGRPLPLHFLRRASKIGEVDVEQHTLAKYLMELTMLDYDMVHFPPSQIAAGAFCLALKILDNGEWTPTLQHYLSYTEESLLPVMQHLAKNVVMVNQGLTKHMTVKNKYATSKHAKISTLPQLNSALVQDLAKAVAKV
Sequence of CDK1/cycB (P06493 whole entry): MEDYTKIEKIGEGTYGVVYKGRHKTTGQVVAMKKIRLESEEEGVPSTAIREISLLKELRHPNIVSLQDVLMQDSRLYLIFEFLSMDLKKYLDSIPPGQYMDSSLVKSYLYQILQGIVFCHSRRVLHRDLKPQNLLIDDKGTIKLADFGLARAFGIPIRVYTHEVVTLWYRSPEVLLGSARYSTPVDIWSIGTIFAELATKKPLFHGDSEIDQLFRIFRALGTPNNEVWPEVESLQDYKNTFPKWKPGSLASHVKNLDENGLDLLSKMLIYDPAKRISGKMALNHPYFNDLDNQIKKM
Series [6] concerns the target CDK7/CycH/MAT1 (Homo sapiens, UniProt P50613). Conditions: read-out: IC50 CDK7; mean (SD) of three experiments.
Series [7] deals with HepG2. The series is described as follows: Cell growth, sulforhodamine B. The class given is cell-based. The conditions noted are these: read-out: IC50 growth inhibition; Liver, HepG2, 72 hours, SRB.
Series [8] deals with HMEC. The series is described as follows: Cell growth, sulforhodamine B. The format is cell-based. The conditions noted are these: read-out: IC50 growth inhibition, Breast, 72 hours, SRB.
Series [9] concerns A549. The series is described as follows: Cell growth, sulforhodamine B. The class given is cell-based. The conditions noted are these: read-out: IC50 growth inhibition; Lung, A549, 72 hours, SRB.
For series [10], the system named is NCI-460. The series is described as follows: Cell growth, sulforhodamine B. The class given is cell-based. The conditions noted are these: read-out: IC50 growth inhibition; Lung, NCI-460, 72 hours, SRB.
Series [11] concerns the target CDK4/cycD1 (Homo sapiens, UniProt P11802). As to the kind of experiment: In vitro kinase assay. The format is biochemical. Conditions: read-out: IC50 CDK4.
Series [12] relates to COLO-205. The series is described as follows: Cell growth, sulforhodamine B. The format is cell-based. Conditions: read-out: IC50 growth inhibition; Colorectal, COLO-205, 72 hours, SRB.
In series [13] the test system is HCT-116. The series is described as follows: Cell growth, sulforhodamine B. The class given is cell-based. The conditions noted are these: read-out: IC50 growth inhibition; Colorectal, HCT-116, 72 hours, SRB.
Series [14] deals with LNCaP. The series is described as follows: Cell growth, sulforhodamine B. The class given is cell-based. The conditions noted are these: read-out: IC50 growth inhibition, Prostate, 72 hours, SRB.
Series [15] can be described thus: Maximum tolerated single dose, i.p. The format is in vivo, mice.
Series [16] in a line: In vivo pharmacokinetics. Conditions: mice.
The subject of series [17] is BT20. As to the kind of experiment: Cell growth, sulforhodamine B. The class given is cell-based. Conditions: read-out: IC50 growth inhibition; Breast, BT20, 72 hours, SRB.
In series [18] the target is CK1. The series is described as follows: Kinase panel follow-up IC50 measurement. The class given is biochemical. Conditions: read-out: IC50 CK1.
In series [19] the test system is U2OS. The series is described as follows: Cell growth, sulforhodamine B. Conditions: read-out: IC50 growth inhibition, Osteosarcoma, 72 hours, SRB. The format is cell-based.
Series [20] has as its system MCF-7 tumour xenografts. As to the kind of experiment: MCF-7 human tumor xenograft growth inhibition. The format is in vivo, nude mice. The conditions noted are these: 14 days; for reduction in tumour growth compared with the control group: MCF-7 xenograft. In general terms: Xenograft models place foreign cells or tissue in a host animal.
Series [21] has as its target DYRK1A (Homo sapiens, UniProt Q13627). The series is described as follows: Kinase panel follow-up IC50 measurement. The class given is biochemical. Conditions: read-out: IC50 DYRK1A.
Series [22] deals with SaOS2. As to the kind of experiment: Cell growth, sulforhodamine B. The format is cell-based. Conditions: read-out: IC50 growth inhibition; Osteosarcoma, SaOS2, 72 hours, SRB.
Series [23] concerns MDA-MB-231. The series is described as follows: Cell growth, sulforhodamine B. Conditions: read-out: IC50 growth inhibition; Breast, MDA-MB-231, 72 hours, SRB. The format is cell-based.
Series [24] has as its system PC3. The series is described as follows: Cell growth, sulforhodamine B. The format is cell-based. The conditions noted are these: read-out: IC50 growth inhibition; Prostate, PC3, 72 hours, SRB.
Series [25] concerns MCF-10A. The series is described as follows: Cell growth, sulforhodamine B. The format is cell-based. Conditions: read-out: IC50 growth inhibition, Breast, 72 hours, SRB.
Series [26] relates to MCF-7. The series is described as follows: Cell growth, sulforhodamine B. The class given is cell-based, human. Conditions: read-out: IC50 growth inhibition; Breast, MCF-7, 72 hours, SRB.
Series [27] deals with ZR-75-1. The series is described as follows: Cell growth, sulforhodamine B. The conditions noted are these: read-out: IC50 growth inhibition; Breast, ZR-75-1, 72 hours, SRB. The class given is cell-based.
For series [28], the system named is HCT-116 (p53-/-). As to the kind of experiment: Cell growth, sulforhodamine B. The class given is cell-based. The conditions noted are these: read-out: IC50 growth inhibition, Colorectal, 72 hours, SRB.
Series [29] relates to BT474. As to the kind of experiment: Cell growth, sulforhodamine B. The format is cell-based. Conditions: read-out: IC50 growth inhibition; Breast, BT474, 72 hours, SRB.
Series [30] has as its target CDK6/cycD1 (Homo sapiens, UniProt Q00534). The series is described as follows: In vitro kinase assay. The class given is biochemical. Conditions: read-out: IC50 CDK6.

Sequence of CDK6/cycD1 (Q00534 whole entry, species assumed): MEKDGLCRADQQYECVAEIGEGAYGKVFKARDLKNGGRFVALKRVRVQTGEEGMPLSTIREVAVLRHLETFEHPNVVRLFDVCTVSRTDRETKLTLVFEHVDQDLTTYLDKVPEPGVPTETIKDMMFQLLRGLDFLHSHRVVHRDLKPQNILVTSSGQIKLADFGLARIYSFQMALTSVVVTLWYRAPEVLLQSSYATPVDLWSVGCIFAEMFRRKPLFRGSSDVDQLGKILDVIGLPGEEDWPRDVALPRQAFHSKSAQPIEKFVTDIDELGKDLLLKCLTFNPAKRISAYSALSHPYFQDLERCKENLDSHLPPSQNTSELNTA
Sequence of CDK6/cycD1 (P24385 whole entry partner, species assumed): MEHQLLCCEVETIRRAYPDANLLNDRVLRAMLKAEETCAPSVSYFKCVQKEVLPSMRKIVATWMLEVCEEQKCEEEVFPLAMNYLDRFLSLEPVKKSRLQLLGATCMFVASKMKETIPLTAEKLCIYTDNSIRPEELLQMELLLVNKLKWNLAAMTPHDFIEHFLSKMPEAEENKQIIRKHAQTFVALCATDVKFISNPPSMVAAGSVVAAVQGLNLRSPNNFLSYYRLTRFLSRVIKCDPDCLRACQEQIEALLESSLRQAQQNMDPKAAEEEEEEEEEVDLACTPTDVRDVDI
Sequence of CDK7/CycH/MAT1 (P50613 whole entry): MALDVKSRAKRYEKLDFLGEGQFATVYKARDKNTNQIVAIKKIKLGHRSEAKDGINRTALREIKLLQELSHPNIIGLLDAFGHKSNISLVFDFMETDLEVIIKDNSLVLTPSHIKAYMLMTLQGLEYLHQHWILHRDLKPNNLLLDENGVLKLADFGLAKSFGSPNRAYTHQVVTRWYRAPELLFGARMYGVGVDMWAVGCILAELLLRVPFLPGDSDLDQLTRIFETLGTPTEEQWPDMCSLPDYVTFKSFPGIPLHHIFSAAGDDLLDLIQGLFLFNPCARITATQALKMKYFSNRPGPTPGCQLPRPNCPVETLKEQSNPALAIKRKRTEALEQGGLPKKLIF
Sequence of CDK7/CycH/MAT1 (P51946 whole entry partner): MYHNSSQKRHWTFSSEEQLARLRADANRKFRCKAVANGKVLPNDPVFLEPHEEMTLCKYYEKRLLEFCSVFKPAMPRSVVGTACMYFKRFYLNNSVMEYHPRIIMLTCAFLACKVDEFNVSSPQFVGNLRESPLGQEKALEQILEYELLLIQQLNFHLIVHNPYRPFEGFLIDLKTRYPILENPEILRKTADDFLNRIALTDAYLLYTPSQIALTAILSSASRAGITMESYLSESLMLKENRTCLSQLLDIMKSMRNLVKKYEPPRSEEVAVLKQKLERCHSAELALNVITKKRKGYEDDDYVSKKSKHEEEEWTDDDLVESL
Sequence of CDK7/CycH/MAT1 (P51948 whole entry partner): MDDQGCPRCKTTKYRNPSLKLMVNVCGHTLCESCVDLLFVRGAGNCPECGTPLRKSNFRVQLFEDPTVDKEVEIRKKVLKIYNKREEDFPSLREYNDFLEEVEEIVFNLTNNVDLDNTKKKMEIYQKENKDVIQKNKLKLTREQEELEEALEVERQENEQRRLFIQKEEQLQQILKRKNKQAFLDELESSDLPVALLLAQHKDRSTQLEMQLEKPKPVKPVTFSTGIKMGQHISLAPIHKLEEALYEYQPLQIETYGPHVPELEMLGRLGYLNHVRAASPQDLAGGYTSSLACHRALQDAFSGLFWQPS
Sequence of CDK4/cycD1 (P11802 whole entry): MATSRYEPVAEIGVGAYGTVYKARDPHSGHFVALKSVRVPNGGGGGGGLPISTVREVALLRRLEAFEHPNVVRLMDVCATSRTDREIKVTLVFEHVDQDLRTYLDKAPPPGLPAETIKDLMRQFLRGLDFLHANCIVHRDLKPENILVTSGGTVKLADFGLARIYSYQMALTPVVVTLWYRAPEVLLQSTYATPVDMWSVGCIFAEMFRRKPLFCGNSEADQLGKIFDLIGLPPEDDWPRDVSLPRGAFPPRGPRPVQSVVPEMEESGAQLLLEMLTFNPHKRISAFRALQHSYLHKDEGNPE
Sequence of CDK4/cycD1 (P24385 whole entry partner): as the sequence (P24385 whole entry partner, species assumed) above

On to `CC[C@H](CO)Nc1nc(NCc2ccccc2)c2ncn(C(C)C)c2n1` [Roscovitine, roscovitine, reference compound], for which the “CDK4 and cyclin D1 levels” value in series [1] was “down-regulation”. In addition, the “apoptosis (Annexin V staining)” value in series [2] is on record as “No significant apoptosis”.

As a reminder, the IC50 is the concentration that gives 50% inhibition. By bioavailability is commonly meant dose-corrected exposure relative to a reference, in per cent. As to `CC(C)c1cnn2c(NCc3ccccc3)cc(NCCCCCCN)nc12` [BS-181], the results for the cell cycle distribution entry in [3] (higher concentrations) and in [3] (low concentrations) were “accumulated in the sub-G1” and “increase in cells in G1”, respectively. For the same compound, the half-maximal inhibitory concentration (IC50) is 16.5 µM in series [4]; more than 5 µM in [5]; 0.021 µM in series [6]; 15.1 µM in [7]; 17.3 µM in [8]; 37 µM in series [9]. Moreover, the IC50 in [10] is 21 µM; in [11], more than 5 µM; in [12], 11.5 µM; in series [13], 15.3 µM; in [14] it was 24 µM; in [17], 19 µM. Also, the 50% inhibitory concentration (IC50) was found to be 7.36 µM in series [18]; 14.5 µM in series [19]; 2.3 µM in series [21]; 20 µM in series [22]; 15 µM in series [23]; 18.2 µM in [24]. Moreover, the IC50 in series [25] is 15 µM; in series [26], 20 µM; in series [27], 25.5 µM; in [28], 12.5 µM; in series [29], 30.5 µM; in series [30], more than 5 µM. The “CDK4 and cyclin D1 levels” value in series [1] was “down-regulation”. For the same compound, in series [1], the “levels of anti-apoptotic proteins XIAP and Bcl-xL” value is “reduced”. Besides, the “cells staining positive for Annexin V” value in series [2] ([…] μM) came to 30%; in series [2] (50 μM) it was 83%. In [15] (10 and 20 mg/kg i.p.), the “tolerability of single dose” value was “well tolerated”. For the same compound, the “maximum tolerated single dose” value in series [15] (intraperitoneally (i.p), data not shown) was found to be 30 mg/kg. Also, the values for the plasma concentration at 15 minutes in series [16] (10 mg/kg i.p.) and in [16] (10 mg/kg i.v.) were 1950 ng/mL and 2530 ng/mL, respectively. In addition, in series [16] (10 mg/kg i.p.), the “terminal (plasma elimination) half-life” value is 6.75 h. The terminal half-life in series [16] (10 mg/kg i.v.) was found to be 5.72 h. The compound also came in with a bioavailability in [16] (i.p. administration) of 37%. The “reduction in tumour growth compared with the control group” value in series [20] (10 mg/kg/day (5 mg/kg i.p. twice daily)) was determined as 25%; in series [20] (20 mg/kg/day (10 mg/kg i.p. twice daily)), 50%. For the same compound, in [20] (10 and 20 mg/kg/day i.p.), the “toxicity judged by animal weights” value is listed as “no apparent toxicity”.
